The values below are quoted from earlier work in patent publication US20230381309A1, “METHODS OF TREATING DIFFUSE LARGE B-CELL LYMPHOMA” (IMMUNOVACCINE TECHNOLOGIES INC., priority 2020, published 2023).

The test system of the series is relapsed/refractory DLBCL.

Where two headings read alike, the source gives them in different places.

In the case of “nivolumab: PD1 antibody (Opdivo; Bristol-Myers Squibb)”, the objective response rate (patients having failed autologous transplantation) is on record as 10% and the objective response rate (patients ineligible for autologous transplantation) is given as 3%.
